Experimental data: patent US20220073448A1, “METHOD FOR SYNTHESIZING CARBOXY-CONTAINING ANTHRAQUINONE DERIVATIVE, CARBOXY-CONTAINING ANTHRAQUINONE DERIVATIVE PREPARED THEREBY, AND BATTERY SYSTEM COMPRISING SAME” (CHINA SALT JINTAN CO., LTD., priority 2019, published 2022)

Assay: Cyclic voltammetry (CV), three-electrode system, glassy carbon working electrode, Ag/AgCl reference electrode
Format: physicochemical
Conditions: 2 mM in potassium hydroxide aqueous solution at pH=14, scan rate 20 mV/s, in V
Source text: In the cyclic voltammetry test of the electric pair, the CS Series electrochemical workstation from Wuhan Corrtest Instruments Corp., Ltd. was used to test the electrochemical performance of the organic electric pair with a three-electrode system. The working electrode was a glassy carbon electrode (Tianjin IDA Hengsheng Co.), the reference electrode was a Ag/AgCl electrode, the counter electrode was a platinum electrode, the scan range of the electric pair of positive electrode and negative electrode was −1.0 to 1.0 V, and the scan rate was 20 mV·s^−1.
A 1-[N-(5-carboxybutylacyl)]aminoanthraquinone solution (at a concentration of 2 mM, in a potassium hydroxide aqueous solution at pH=14) was investigated by cyclic voltammetry (CV).
A 1-[N-(6-carboxypentylacyl)]aminoanthraquinone solution (at a concentration of 2 mM, in a potassium hydroxide aqueous solution at pH=14) was investigated by cyclic voltammetry (CV).
A 1-[N-(7-carboxyhexylacyl)]aminoanthraquinone solution (at a concentration of 2 mM, in a potassium hydroxide aqueous solution at pH=14) was investigated by cyclic voltammetry (CV).
A 1-[N-(8-carboxyheptylacyl)]aminoanthraquinone solution (at a concentration of 2 mM, in a potassium hydroxide aqueous solution at pH=14) was investigated by cyclic voltammetry (CV).

| Molecule | redox peak in CV curve | redox peak in CV curve (more negative) |
| --- | --- | --- |
| 1-[N-(7-carboxyhexylacyl)]aminoanthraquinone | ~−0.60 | ~−0.67 |
| O=C(O)CCCCC(=O)Nc1cccc2c1C(=O)c1ccccc1C2=O [1-[N-(6-carboxypentylacyl)]aminoanthraquinone] | ~−0.60 | ~−0.66 |
| O=C(O)CCCCC(=O)Nc1cccc2c1C(=O)c1ccccc1C2=O [1-[N-(5-carboxybutylacyl)]aminoanthraquinone] | ~−0.60 | ~−0.65 |
| O=C(O)CCCCCCCC(=O)Nc1cccc2c1C(=O)c1ccccc1C2=O [1-[N-(8-carboxyheptylacyl)]aminoanthraquinone] | ~−0.60 | ~−0.68 |
